The source of these data is patent publication US20180318200A1, “MOUTHWASH PRODUCTS AND METHODS” (COLGATE-PALMOLIVE COMPANY, priority 2015, published 2018).

Read-outs that look alike come from different tables or passages of the source.

Assay [1] in a line: Microhardness (Knoop) remineralization assay on etched enamel blocks. On the set-up: species or system bovine. As to conditions: hydrolysate filtrate with CPC 0.1% and fluoride (NaF) as stated in the label. As for the experimental part:
Enamel blocks are prepared as described in Example 1. […] Blocks with a Knoop hardness (KH) of at least 300 are selected. The blocks are etched by immersing in 30% phosphoric acid for 15 seconds. The KH on the left and right sides of the blocks are measured. Subsequently, the right side of the blocks are covered with tape prior to treating the blocks with 20 mg/ml solution of hydrolyzed wheat protein (Gluadin W20 from BASF) or hydrolyzed rice protein (GLUADIN R from BASF), each neutralized as described in example 1, for two terms of 30 minutes. (The tape on the right hand side of the blocks prevents exposure of this side to the protein solution and serves as an internal control). The blocks are washed twice with DI water @ 5 minutes, 500 PRM between the two treatments and after the second treatment. Subsequently, the tape is removed and the blocks are incubated in AS solution (0.2 mM MgCl2, 1 mM CaCl2.H2O, 20 mM HEPES buffer, 4 mM KH2PO4, 16 mM KCl, 4.5 mM NH4Cl, 300 ppm NaF, 0.05 wt. % NaN3, at pH 7 (adjusted with 1M NaOH)) for 7 days. After rinsing the enamel blocks with DI water and air-drying the rinsed blocks, microhardness is measured again. Surface microhardness regain (SMHL, Remin %) as a percent is calculated as […]

A short description of assay [2]: Nanoindentation (nanohardness and Young's modulus) of acid-etched enamel blocks. More on the design: species or system bovine. The note with it: hydrolyzed wheat protein 0.5 weight %, fluoride 500 ppm; three cycles of 30 minutes treatment + 22 to 24 hours AS. The method, then: Enamel blocks are prepared as described in Example 1. Acid-etching is achieved by placing the enamel blocks in 1% citric acid solution (pH 3.8) for 15 minutes. The nanohardness and Young's modulus at 500 nm depth are measured prior to and after etching. Etched enamel blocks are incubated with a solution of hydrolyzed wheat protein (GLUADIN W20), at a concentration of 0.5 weight %, for 30 minutes (2 ml solution/block), followed by an incubation with AS solution as described in Example 1, for 22 to 24 hours. The hydrolyzed wheat protein and AS incubation steps are repeated two additional times, after which the enamel blocks are rinsed with DI water and air-dried. The nanohardness and Young's modulus of the treated enamel blocks are measured at 500 nm depth to assess the enamel repair effects of the hydrolyzed wheat protein. A solution of 500 ppm fluoride is used as a positive control for the experiment. The results are illustrated in Tables 2 and 3.

For assay [3] the following is noted: surface microhardness loss, 4 day cycling, four 10 minute treatments per day.
Protocol: The selected enamel blocks are then the enamel blocks are pre-treated and subjected to 4 day cycling as described below, using DI water (negative control), 500 ppm F (positive control) and 0.2% wheat hydrolysate (Gluadin W20)+500 ppm F (test material) prepared as described in the previous example. The microhardness of the enamel blocks is measured again as final (MHfinal).
Each enamel block is sanitized in ethanol twice then washed in sterile DI water three times. Then each enamel block is pre-incubated in saliva supernatant at 4° C. overnight to form pellicle on the enamel surface.
Day Two to Five—Dentifrice treatment, demineralization and remineralization: Unstimulated whole saliva is collected from donors, who refrain from eating and oral hygiene in the morning. The saliva is pooled and centrifuged at 8000 rpm for 10 minutes. […] The sediment is washed once using sterile DI water and centrifuged at 8000 rpm for 10 minutes. The water supernatant is removed. The washed sediment is then diluted in the salivary supernatant TSB mixture to an OD (610 nm)=0.5. […]
Surface microhardness loss (SMHL, Demin %) as a percent was calculated as (1−(Microhardnessfinal/Microhardnesssound))*100.
The conditions of assay [4]: evaluation with weight adjustment; two 30 minute ex vivo treatments, 7 days in situ in retainer.
Protocol: A treatment phase is completed ex vivo. Initial microhardness (MH) measurements are taken on sound, bovine enamel blocks (MHBaseline). The blocks are then etched with 30% phosphoric acid until there was a 40% change in the microhardness reading from Baseline. The microhardness is recorded as etched (Equation 1, MHEtched). Each etched enamel block is then immersed in a 2 ml solution of pre-treated 0.2% wheat hydrolysate (Gluadin W20)+500 ppm F prepared as described above, or a 2 ml solution of 500 ppm F, for 30 minutes. After 30 minutes, the blocks are washed twice with DI water at 500 RPM for 5 minutes, and then dried with a paper towel. This treatment cycle is repeated. The blocks are then secured within the designated location on a retainer for placement in the oral cavity of a subject. Six enamel blocks are placed in each retainer. Pre-punched holes on the retainer allow saliva fluid to contact etched enamel and to provide minerals for remineralization. […] The treated and control enamel blocks are randomized on the left or right side of the retainer. The retainers are then stored in a refrigerator until Day 1 of the study.
Twenty-six subjects are included in this randomized, blinded study. […] After 7 days, the enamel blocks are taken out of the appliance to take the final microhardness measurements (MHRemineralized) Demineralization and remineralization are calculated as follows: […]

Consider `F` [Fluoride, NaF], for which the Remineralization % came to 11.73% in assay [1] (listed as Buffer + 250 ppm fluoride) and 15.87% in assay [1] (listed as Buffer + 500 ppm fluoride). The “Nanohardness Repair at 500 nm depth (%)” value in assay [2] is recorded as 31.12%. Further, the “Young's Modulus Repair at 500 nm depth (%)” value in assay [2] worked out at 48.50%. In addition, the values for the Demineralization percentage in assay [3] (0.2% sucrose) and in assay [3] (0.4% sucrose) were 8.36% and 19.99%, respectively. For the same compound, the “% Remin” value in assay [4] was 27.6%.
